Laboratory results from patent publication US5217960A, “Erythromycin derivatives” (priority 1991, dated 1993).
≈ marks a conversion by molar mass, not a printed value. Read-outs that look alike come from different tables or passages of the source.

How the values were obtained:
Type in all cases: cell-based
[1] = system: STAPHYLOCOCCUS AUREUS ATCC 6538P; experiment: In vitro antibacterial activity, agar dilution MIC; details: ATCC6538P, 24 h
[2] = system: STAPHYLOCOCCUS AUREUS A5177; experiment: In vitro antibacterial activity, agar dilution MIC; details: S. aureus A5177, BHI agar, 35-37° C., 20 to 24 hours, read-out: MIC
STAPHYLOCOCCUS AUREUS 45 = experiment: In vitro antibacterial activity, agar dilution MIC
[3] = system: STAPHYLOCOCCUS AUREUS 642A; experiment: In vitro antibacterial activity, agar dilution MIC; details: 24 h
[4] = system: STAPHYLOCOCCUS AUREUS NCTC 10649; experiment: In vitro antibacterial activity, agar dilution MIC
[5] = system: STAPHYLOCOCCUS AUREUS CMX 553; experiment: In vitro antibacterial activity, agar dilution MIC
[6] = system: STAPHYLOCOCCUS AUREUS 1775; experiment: In vitro antibacterial activity, agar dilution MIC; details: S. aureus 1775, BHI agar, 35-37° C., 20 to 24 hours, read-out: MIC
[7] = system: STAPHYLOCOCCUS EPIDERMIDIS 3519; experiment: microbe, parasite or virus in culture
EN[…] ATCC 8043 = experiment: In vitro antibacterial activity, agar dilution MIC; details: Enterococcus faecium, ATCC8043, 24 h
Method: (§1) Representative compounds of the present invention were assayed in vitro for antibacterial activity as follows: Twelve petri dishes containing successive aqueous dilutions of the test compound mixed with 10 ml of sterilized Brain Heart Infusion (BHI) agar (Difco 0418-01-5) were prepared. Each plate was inoculated with 1:100 (or 1:10 for slow-growing strains, such as Micrococcus and Streptococcus) dilutions of up to 32 different microorganisms, using a Steers replicator block. The inoculated plates were incubated at 35°-37° C. for 20 to 24 hours. In addition, a control plate, using BHI agar containing no test compound, was prepared and incubated at the beginning and end of each test.
(§2) An additional plate containing a compound having known susceptibility patterns for the organisms being tested and belonging to the same antibiotic class as the test compound was also prepared and incubated as a further control, as well as to provide test-to-test comparability. Erythromycin A was used for this purpose.
(§3) After incubation, each disk was read. The minimum inhibitory concentration (MIC) was defined as the lowest concentration of drug yielding no growth, a slight haze, or sparsely isolated colonies on the inoculum spot as compared to the growth control. The results of this assay, shown below in Tables 1 and 2, support the conclusion that the compounds of the invention are effective antibacterial agents.

M[…] ATCC 4698 = experiment: In vitro antibacterial activity, agar dilution MIC; details: Micrococcus luteus, ATCC4698, 24 h
Method: as §1, §2, §3

M[…] ATCC 9341 = experiment: In vitro antibacterial activity, agar dilution MIC; details: Micrococcus luteus, ATCC9341, 24 h
Method: as §1, §2, §3

[8] = system: PSEUDOMONAS AERUGINOSA K799/61; experiment: In vitro antibacterial activity, agar dilution MIC
Method: as §1, §2, §3

[9] = system: STREPTOCOCCUS BOVIS A5169; experiment: In vitro antibacterial activity, agar dilution MIC
STR[…] 508 = experiment: In vitro antibacterial activity, agar dilution MIC; details: Streptococcus agalactiae, 24 h
Method: as §1, §2
(§4) After incubation, each disk was read. The minimum inhibitory concentration (MIC) was defined as the lowest concentration of drug yielding no growth, a slight haze, or sparsely isolated colonies on the inoculum spot as compared to the growth control.

STR[…] EES61 = experiment: In vitro antibacterial activity, agar dilution MIC; details: Streptococcus pyogenes, 24 h
Method: as §1, §2, §4

[10] = system: STREPTOCOCCUS PYOGENES 930 CONST; experiment: In vitro antibacterial activity, agar dilution MIC
[11] = system: STREPTOCOCCUS PYOGENES 2548 INDUC; experiment: In vitro antibacterial activity, agar dilution MIC
ESCHERICHIA COLI JUHL = experiment: microbe, parasite or virus in culture; details: E. coli JUHL, BHI agar, 35-37° C., 20 to 24 hours, read-out: MIC
ESCHERICHIA COLI SS = experiment: In vitro antibacterial activity, agar dilution MIC
ESCHERICHIA COLI DC-2 = experiment: In vitro antibacterial activity, agar dilution MIC; details: E. coli DC-2, BHI agar, 35-37° C., 20 to 24 hours, read-out: MIC
ESCHERICHIA COLI H560 = experiment: In vitro antibacterial activity, agar dilution MIC
ESCHERICHIA COLI KNK 437 = experiment: microbe, parasite or virus in culture; details: E. coli KNK 437, BHI agar, 35-37° C., 20 to 24 hours
[12] = system: ENTEROBACTER AEROGENES ATCC 13048; experiment: In vitro antibacterial activity, agar dilution MIC; details: Klebsiella aerogenes, ATCC13048; E. aerogenes ATCC 13048; BHI agar, 35-37° C., 20 to 24 hours; read-out: MIC
[13] = system: KLEBSIELLA PNEUMONIAE ATCC 8045; experiment: In vitro antibacterial activity, agar dilution MIC; details: ATCC8045, K. pneumoniae ATCC 8045, BHI agar, 35-37° C., 20 to 24 hours, read-out: MIC
[14] = system: PROVIDENCIA STUARTII CMX 640; experiment: microbe, parasite or virus in culture; details: P. stuartii CMX 640, BHI agar, 35-37° C., 20 to 24 hours
[15] = system: PSEUDOMONAS AERUGINOSA BMH10; experiment: In vitro antibacterial activity, agar dilution MIC; details: P. aeruginosa BMH10, BHI agar, 35-37° C., 20 to 24 hours, read-out: MIC
[16] = system: PSEUDOMONAS AERUGINOSA A5007; experiment: In vitro antibacterial activity, agar dilution MIC; details: P. aeruginosa A5007, BHI agar, 35-37° C., 20 to 24 hours
[17] = system: PSEUDOMONAS AERUGINOSA K799/WT; experiment: In vitro antibacterial activity, agar dilution MIC; details: P. aeruginosa K799/WT, BHI agar, 35-37° C., 20 to 24 hours
PSEUDOMONAS CEPACIA 296I = experiment: In vitro antibacterial activity, agar dilution MIC; details: Burkholderia cepacia; P. cepacia 296I; BHI agar, 35-37° C., 20 to 24 hours; read-out: MIC
[18] = system: ACINETOBACTER CALCOACETICUS CMX 669; experiment: In vitro antibacterial activity, agar dilution MIC; details: A. calcoaceticus CMX 669, BHI agar, 35-37° C., 20 to 24 hours

Row | SMILES | MIC [1] | MIC [2] | MIC [3] | MIC [6] | MIC (EN[…] ATCC 8043) | MIC (M[…] ATCC 4698) | MIC (M[…] ATCC 9341) | MIC (STR[…] 508) | MIC (STR[…] EES61) | MIC (ESCHERICHIA COLI JUHL) | MIC (ESCHERICHIA COLI DC-2) | MIC (ESCHERICHIA COLI KNK 437) | MIC [12] | MIC [13] | MIC [14] | MIC [15] | MIC [16] | MIC [17] | MIC (PSEUDOMONAS CEPACIA 296I) | MIC [18] | other results
1 | CC[C@H]1OC(=O)[C@H](C)[C@@H](O[C@H]2C[C@@](C)(OC)[C@@H](O)[C@H](C)O2)[C@H](C)[C@@H](O[C@@H]2O[C@H](C)C[C@H](N(C)C)[C@H]2O)[C@](C)(O)C[C@@H](C)[C@@H](N(C)C)[C@H](C)[C@@H](O)[C@H]1CO [Compound 11, (9R)-9-deoxo-9-(N,N-dimethylamino)-21-hydroxyerythromycin B] | 6.2 µg/mL (≈ 8.13 µM) | 100 µg/mL (≈ 131 µM) | 6.2 µg/mL (≈ 8.13 µM) | > 100 µg/mL | 1.56 µg/mL (≈ 2.04 µM) | 0.78 µg/mL (≈ 1.02 µM) | 0.78 µg/mL (≈ 1.02 µM) | 0.78 µg/mL (≈ 1.02 µM) | 0.39 µg/mL (≈ 0.511 µM) | > 100 µg/mL | > 100 µg/mL | > 100 µg/mL | > 100 µg/mL | > 100 µg/mL | > 100 µg/mL | > 100 µg/mL | > 100 µg/mL | > 100 µg/mL | > 100 µg/mL | > 100 µg/mL | MIC (STAPHYLOCOCCUS AUREUS 45; 24 h): 6.2 µg/mL (≈ 8.13 µM); MIC ([4]; NCTC10649, 24 h): 6.2 µg/mL (≈ 8.13 µM); MIC ([5]; 24 h): 6.2 µg/mL (≈ 8.13 µM); MIC ([7]; 24 h): 6.2 µg/mL (≈ 8.13 µM); MIC ([8]; P. aeruginosa K799/61, BHI agar, 35-37° C., 20 to 24 hours, read-out: MIC): 12.5 µg/mL (≈ 16.4 µM); MIC ([9]; 24 h): 0.78 µg/mL (≈ 1.02 µM); MIC ([10]; S. pyogenes 930 CONST, BHI agar, 35-37° C., 20 to 24 hours, read-out: MIC): > 100 µg/mL; MIC ([11]; 24 h): 50 µg/mL (≈ 65.5 µM); MIC (ESCHERICHIA COLI SS; 24 h): 0.39 µg/mL (≈ 0.511 µM); MIC (ESCHERICHIA COLI H560; 24 h): 50 µg/mL (≈ 65.5 µM)
2 | CC[C@H]1OC(=O)[C@H](C)[C@@H](O[C@H]2C[C@@](C)(OC)[C@@H](O)[C@H](C)O2)[C@H](C)[C@@H](O[C@@H]2O[C@H](C)C[C@H](N(C)C)[C@H]2O)[C@](C)(O)C[C@@H](C)[C@@H](N)[C@H](C)[C@@H](O)[C@@]1(O)CN [Compound 15, (9R)-9,21-diamino-9-deoxo-erythromycin A] | 25 µg/mL (≈ 33.3 µM) | > 100 µg/mL | 12.5 µg/mL (≈ 16.7 µM) | 100 µg/mL (≈ 133 µM) | 12.5 µg/mL (≈ 16.7 µM) | 12.5 µg/mL (≈ 16.7 µM) | 50 µg/mL (≈ 66.7 µM) | 12.5 µg/mL (≈ 16.7 µM) | 25 µg/mL (≈ 33.3 µM) | 100 µg/mL (≈ 133 µM) | 3.1 µg/mL (≈ 4.13 µM) | 100 µg/mL (≈ 133 µM) | > 100 µg/mL | > 100 µg/mL | > 100 µg/mL | > 100 µg/mL | > 100 µg/mL | > 100 µg/mL | 100 µg/mL (≈ 133 µM) | > 100 µg/mL | MIC (STAPHYLOCOCCUS AUREUS 45; S. aureus 45, BHI agar, 35-37° C., 20 to 24 hours, read-out: MIC): 100 µg/mL (≈ 133 µM); MIC ([4]; NCTC10649, S. aureus NCTC 10649, BHI agar, 35-37° C., 20 to 24 hours, read-out: MIC): 100 µg/mL (≈ 133 µM); MIC ([5]; S. aureus CMX 553, BHI agar, 35-37° C., 20 to 24 hours, read-out: MIC): 100 µg/mL (≈ 133 µM); MIC ([7]; S. epidermidis 3519, BHI agar, 35-37° C., 20 to 24 hours, read-out: MIC): > 100 µg/mL; MIC ([8]; 24 h): > 100 µg/mL; MIC ([9]; S. bovis A5169, BHI agar, 35-37° C., 20 to 24 hours, read-out: MIC): 100 µg/mL (≈ 133 µM); MIC ([10]; 24 h): 12.5 µg/mL (≈ 16.7 µM); MIC ([11]; S. pyogenes 2548 INDUC, BHI agar, 35-37° C., 20 to 24 hours, read-out: MIC): > 100 µg/mL; MIC (ESCHERICHIA COLI SS; E. coli SS, BHI agar, 35-37° C., 20 to 24 hours, read-out: MIC): > 100 µg/mL; MIC (ESCHERICHIA COLI H560; E. coli H560, BHI agar, 35-37° C., 20 to 24 hours, read-out: MIC): > 100 µg/mL
